In ChEMBL document CHEMBL1141527, “Design, synthesis, and thrombin-inhibitory activity of pyridin-2-ones as P2/P3 core motifs” (Bioorg Med Chem Lett, 2008):

Legend:
[1] = Selectivity ratio of IC50 for trypsin to IC50 for thrombin
[2] = Inhibition of trypsin
Prothrombin = Prothrombin (Homo sapiens, UniProt P00734); assay: Inhibition of thrombin

Q: What does the source list for `Cc1ccn(NS(=O)(=O)Cc2ccccc2)c(=O)c1CC(=O)NCc1ccc(C(=N)N)cc1`?
A: Ratio IC50 [1]: 7.9; IC50 [2]: 15.2 µM; IC50 (Prothrombin): 1.92 µM

Q: Which Ratio IC50 [1] does the source give for `COc1cc(Cl)ccc1S(=O)(=O)Nn1ccc(C)c(CC(=O)NCc2ccc(C(=N)N)cc2)c1=O` here?
A: Its Ratio IC50 is 13.

Q: What about the IC50 [2] of the same compound?
A: Its IC50 is 4.13 µM.

Q: What about the IC50 (Prothrombin) of the same compound?
A: Its IC50 is 0.307 µM.

Q: With `Cc1cc(-c2ccc(S(=O)(=O)Nn3ccc(C)c(CC(=O)NCc4ccc(N)nc4)c3=O)cc2)c(C)s1` as the compound, how does the IC50 (Prothrombin) read?
A: The IC50 was greater than 44.4 µM.

Q: For `Cc1ccn(NS(=O)(=O)c2ccccc2)c(=O)c1CC(=O)NCc1ccc(C(=N)N)cc1`, which Ratio IC50 [1] is on record?
A: The Ratio IC50 was 2.3.

Q: What about the IC50 [2] of the same compound?
A: The IC50 was 5.77 µM.

Q: And the IC50 (Prothrombin)?
A: Its IC50 is 2.47 µM.

Q: With `Cc1ccn(/N=C/Cc2cccc(C(F)(F)F)c2)c(=O)c1CC(=O)NCc1ccc(N)nc1` as the compound, how does the Ratio IC50 [1] read?
A: The Ratio IC50 was greater than 16.

Q: What about the IC50 [2] of the same compound?
A: The IC50 was greater than 44.4 µM.

Q: And the IC50 (Prothrombin)?
A: The IC50 was 2.71 µM.

Q: For `CCc1ccc(S(=O)(=O)Nn2ccc(C)c(CC(=O)NCc3ccnc(N)c3)c2=O)cc1`, which IC50 (Prothrombin) is on record?
A: Its IC50 is greater than 44.4 µM.

Q: With `Cc1ccn(NS(=O)(=O)c2ccc(Cl)c(Cl)c2)c(=O)c1CC(=O)NCc1ccc(C(=N)N)cc1` as the compound, how does the Ratio IC50 [1] read?
A: Its Ratio IC50 is 12.

Q: What about the IC50 [2] of the same compound?
A: The IC50 was 10.3 µM.

Q: What about the IC50 (Prothrombin) of the same compound?
A: The IC50 was 0.885 µM.

Q: With `Cc1ccccc1CCNn1ccc(C)c(CC(=O)NCc2ccc(C(=N)N)cc2)c1=O` as the compound, how does the Ratio IC50 [1] read?
A: Its Ratio IC50 is 42.

Q: What about the IC50 [2] of the same compound?
A: The IC50 was 0.963 µM.

Q: What about the IC50 (Prothrombin) of the same compound?
A: Its IC50 is 0.023 µM.

Q: With `COc1cc(C)ccc1S(=O)(=O)Nn1ccc(C)c(CC(=O)NCc2ccc(C(=N)N)cc2)c1=O` as the compound, how does the Ratio IC50 [1] read?
A: The Ratio IC50 was 1.7.

Q: What about the IC50 [2] of the same compound?
A: The IC50 was 2.02 µM.

Q: What about the IC50 (Prothrombin) of the same compound?
A: The IC50 was 1.18 µM.

Q: Which Ratio IC50 [1] does the source give for `Cc1ccn(NCCc2ccccc2)c(=O)c1CC(=O)NCc1ccc(C(=N)N)cc1` here?
A: Its Ratio IC50 is 16.

Q: What about the IC50 [2] of the same compound?
A: The IC50 was 1.42 µM.

Q: What about the IC50 (Prothrombin) of the same compound?
A: Its IC50 is 0.091 µM.

Q: For `Cc1ccn(NCS(=O)(=O)c2ccc(Cl)cc2)c(=O)c1CC(=O)NCc1ccnc(N)c1`, which IC50 (Prothrombin) is on record?
A: The IC50 was greater than 44.4 µM.

Q: With `CCCc1ccc(S(=O)(=O)Nn2ccc(C)c(CC(=O)NCc3nccc(C)c3F)c2=O)cc1` as the compound, how does the IC50 (Prothrombin) read?
A: Its IC50 is greater than 44.4 µM.

Q: With `COc1ccc(S(=O)(=O)Nn2ccc(C)c(CC(=O)NCc3ccc(C(=N)N)cc3)c2=O)cc1` as the compound, how does the Ratio IC50 [1] read?
A: The Ratio IC50 was 1.8.

Q: And the IC50 [2]?
A: The IC50 was 3.41 µM.

Q: And the IC50 (Prothrombin)?
A: The IC50 was 1.85 µM.

Q: Which Ratio IC50 [1] does the source give for `Cc1ccc(C)c(CCNn2ccc(C)c(CC(=O)NCc3ccc(C(=N)N)cc3)c2=O)c1` here?
A: Its Ratio IC50 is 23.

Q: What about the IC50 [2] of the same compound?
A: Its IC50 is 2.14 µM.

Q: Which results are given for `COc1ccc(S(=O)(=O)Nn2ccc(C)c(CC(=O)NCc3ccc(N)nc3)c2=O)c(OC)c1`?
A: IC50 [2]: > 4.4 µM; IC50 (Prothrombin): > 44.4 µM

Q: For `Cc1ccc(C)c(S(=O)(=O)Nn2ccc(C)c(CC(=O)NCc3ccc(C(=N)N)cc3)c2=O)c1`, which Ratio IC50 [1] is on record?
A: The Ratio IC50 was 12.

Q: What about the IC50 [2] of the same compound?
A: The IC50 was 7.13 µM.

Q: What about the IC50 (Prothrombin) of the same compound?
A: The IC50 was 0.578 µM.

Q: For `Cc1ccnc(CNC(=O)Cc2c(C)ccn(NS(=O)(=O)c3c(C)cccc3Cl)c2=O)c1F`, which IC50 [2] is on record?
A: Its IC50 is greater than 44.4 µM.

Q: What about the IC50 (Prothrombin) of the same compound?
A: Its IC50 is greater than 44.4 µM.

Q: Which Ratio IC50 [1] does the source give for `COc1cccc(S(=O)(=O)Nn2ccc(C)c(CC(=O)NCc3ccc(C(=N)N)cc3)c2=O)c1` here?
A: The Ratio IC50 was 15.

Q: What about the IC50 [2] of the same compound?
A: The IC50 was 15.6 µM.

Q: What about the IC50 (Prothrombin) of the same compound?
A: The IC50 was 1.05 µM.

Q: Which IC50 (Prothrombin) does the source give for `Cc1ccnc(CNC(=O)Cc2c(C)ccn(NS(=O)(=O)c3ccccc3S(C)(=O)=O)c2=O)c1F` here?
A: The IC50 was greater than 44.4 µM.

Q: Which Ratio IC50 [1] does the source give for `Cc1ccn(NS(=O)(=O)c2cccc3ccccc23)c(=O)c1CC(=O)NCc1ccc(C(=N)N)cc1` here?
A: The Ratio IC50 was 14.

Q: And the IC50 [2]?
A: Its IC50 is 17.1 µM.

Q: And the IC50 (Prothrombin)?
A: The IC50 was 1.24 µM.

Q: For `Cc1ccnc(CNC(=O)Cc2c(C)ccn(NCCc3cc(Cl)ccc3F)c2=O)c1F`, which IC50 (Prothrombin) is on record?
A: Its IC50 is greater than 44.4 µM.
